Source: patent US20080131920A1, “Ion flux in biological processes, and methods related thereto” (priority 2005, published 2008)

Experiments:
[1] = test system: Xenopus tail regeneration; details: compound in medium beginning immediately after tail amputation (stage 40-41)
[2] = test system: Sonic hedgehog (Shh), Nodal; assay: Sidedness of Shh and Nodal expression in chick embryos (in ovo culture, in situ hybridization); details: in vivo
Description: We examined the effect of inhibiting H^+-V-ATPase activity on the expression of the early left-sided marker Sonic hedgehog (Shh). Inhibition of H^+-V-ATPase activity following treatment with concanamycin or DCCD specifically randomized the expression of Shh, as well as that of and the downstream marker Nodal. Compared to controls, in which these two markers are always left-sided, concanamycin induced aberrant sidedness of Shh expression in 67% and Nodal in 24% of embryos. Thus, as in Xenopus, H^+-V-ATPase is upstream of the known asymmetric gene cascade, and is required for normal LR patterning in chicks.
To perform a pharmacological screen on chick embryos with minimal disturbance to normal morphogenesis, we optimized a chicken in ovo culture system. A small hole was made on the top of each egg (prior to incubation), and 5 ml of light albumin was removed. […]. Eggs were securely wrapped with Scotch tape, incubated at 37.5° C. to the desired stages, then fixed for analysis of laterality markers by in situ hybridization.
Whole mount in situ hybridization (WISH) on Xenopus was performed according to standard methods. DNA used to transcribe in situ hybridization probes were XNr-1 (Lohr et al., 1998, Developmental Genetics 23: 194-202; Lowe et al., 1996, Nature 381: 158-161); cShh (Levin et al., 1995, Cell 82: 803-814); cNodal (Levin et al., 1995, Cell 82: 803-814).

Xenopus embryos = type: in vivo; details: treated from fertilization to stage 7; organs scored at stage 45
Dugesia japonica = assay: Planarian regeneration, anterior-posterior phenotype (anteriorizing index) under GJC inhibition; type: in vivo
Protocol: Regenerating worms were contacted with the compound at an early stage of regeneration (2 days after cutting). 1-10 μM heptanol was dissolved in the medium. […] At 7 days post-cutting, we assayed the worms for the morphology of blastemas.
We next sought to ascertain whether the anteriorizing effect was dependent on the AP (anterior-posterior) level from which the fragment originated. Worms were amputated at four levels to make five body fragments: head, pre-pharyngeal, trunk (including the pharynx), post-pharyngeal and tail fragments.
The asexual clonal strain GI of the planarian, Dugesia japonica, was used in these study. In all experiments, the worms were starved for 1 week before use.
Intact worms 1-1.5 cm long were put into heptanol (or hexanol) solution (0.0045-0.006% vigorously vortexed into spring water) immediately prior to amputation to equilibrate the worms with the drug solution. The worms were amputated at four levels to generate the head, pre-pharyngeal, trunk (or “pharyngeal”), post-pharyngeal, and tail fragments. Worm fragments were incubated at 22° C. for 2 days. The heptanol solution was exchanged for fresh solution every day. The worms were then washed with water twice and incubated in worm water for 14-20 days to monitor the phenotypes.
We developed a quantitative scheme allowing comparison of degree of anteriorization among groups of worms. Each worm was scored on the following scale by observing the posterior blastema: 0 points—normal (a normal worm with a fully-patterned tail), 1 point—weak anteriorization of posterior blastema (missing tail or bipolar pharynx), 2 points—stronger anteriorization of posterior blastema (incomplete ectopic head with eye structures), or 3 points—complete anteriorization of posterior blastema (bipolar head, where the ectopic head has complete development with 2 normal eyes). For each group of worms, we calculated an average score that is the sum of all scores for the worms divided by the total number of worms. For convenience, the index was scaled from 0 to 100 (final index=average score*100/3). On this scale, a group of worms that were all normal would score 0, while a group of worms all of which were fully double-head would score 100. This scheme was focused on ascertaining the extent of anteriorization as judged by external morphology.

Row | SMILES | effect on rate or extent of tail regeneration [1] | also measured
1 | O=C(O)c1c2ccccc2cc2ccccc12 [9-anthracene-carboxylic acid] | no effect | –
2 | CC1(C)[C@@H](O)CC[C@]2(C)[C@H]3C(=O)C=C4[C@@H]5C[C@@](C)(C(=O)O)CC[C@]5(C)CC[C@@]4(C)[C@]3(C)CC[C@@H]12 [18-β-glycyrrhetinic acid] | no effect | –
3 | [Ba+2].[Cl-].[Cl-] [BaCl] | absence of regeneration | –
4 | C(=NC1CCCCC1)=NC1CCCCC1 [DCCD] | – | expression of Shh and Nodal (sidedness) [2]: randomized
5 | CCN(c1nc(N)c(C(=O)NC(=N)N)nc1Cl)C(C)C [EIPA, Ethylisopropyl amiloride] | no effect | –
6 | O=C1CCC(N2Cc3ccccc3C2=O)C(=O)N1 (centres unmarked) [EM12] | no effect | –
7 | Cc1nc2c(OCc3ccccc3)cccn2c1CC#N [SCH28080] | no effect | –
8 | COc1ccc2c(c1OC)CN1CCc3cc4c(cc3C1C2)OCO4 (centres unmarked) [THB, Tetrahydroberberine] | no effect | –
9 | N=C(N)NC(=O)c1nc(Cl)c(N)nc1N [amiloride] | no effect | –
10 | CO/C1=C\C(C)=C\[C@@H](C)[C@@H](O)[C@@H](C)C/C(C)=C/C=C/[C@H](OC)[C@@H]([C@@H](C)[C@@H](O)[C@H](C)[C@@]2(O)C[C@@H](O)[C@H](C)[C@@H](C(C)C)O2)OC1=O [bafilomycin] | – | heterotaxia, % of the embryos (Xenopus embryos): 36%
11 | CC1=NS(=O)(=O)c2cc(Cl)ccc2N1 [diazoxide] | no effect | –
12 | COc1ccc(Cl)cc1C(=O)NCCc1ccc(S(=O)(=O)NC(=O)NC2CCCCC2)cc1 [glibenclamide] | no effect | –
13 | CCCCCCCO [heptanol] | no effect | toxicity to the worms (Dugesia japonica; 1-10 μM): not toxic; trunk fragments with anteriorization of both blastemas (Dugesia japonica; 1-10 μM in the medium, scored 7 days post-cutting): 43%; complete bipolar heads (Dugesia japonica; 1-10 μM, trunk fragments): 16%
14 | CCCCCCO [hexanol] | – | strong anteriorization of the posterior blastema (Dugesia japonica; in vivo): never induced strong anteriorization; tail regeneration (Dugesia japonica; in vivo): did inhibit tail regeneration
15 | C[C@@H]1O[C@@H](O[C@H]2C[C@@H](O)[C@]3(CO)[C@H]4[C@H](O)C[C@]5(C)[C@@H](C6=CC(=O)OC6)CC[C@]5(O)[C@@H]4CC[C@]3(O)C2)[C@H](O)[C@H](O)[C@H]1O [ouabain] | no effect | –
16 | CCOC(=O)c1cccc(N)c1 [tricaine] | absence of regeneration | –
